Earlier results as cited in publication PMC6503469, “The Use of Molecular Descriptors To Model Pharmaceutical Uptake by a Fish Primary Gill Cell Culture Epithelium” (Environmental Science & Technology, 2018).
Structures can show the parent of a compound that is named as a salt. Where two headings read alike, the source gives them in different places.

Key:
[1] = source not stated; for PSA: polar surface area; for pKa: molecular descriptor; for log D: octanol–water distribution coefficient at pH 7.4; for log Kow: octanol–water partition coefficient; for log S: molecular descriptor (solubility)
[2] = set-up: method as in PMID 28853873; conditions: adult zebrafish
[3] = not given; remark: listed apart in the source
[4] = set-up: method as in Chen et al 2017; conditions: pH 7.6, after 6h exposure to 12.5 µg/L; ref Chen et al 2017
[5] = set-up: method as in Nallani et al 2012; conditions: pH 7.4, exposed to 83 µg/L for 7 days; ref Nallani et al 2012

PSA [1] | pKa [1] | log D [1] | log Kow [1] | log S [1] | Structure (SMILES) | also measured
115.04 Å^2 | – | – | – | – | CC(=O)Nc1nnc(S(N)(=O)=O)s1 [acetazolamide] | –
40.10 Å^2 | – | 0.29 | 2.48 | –3.5 | CC(C)Cc1ccc(C(C)C(=O)O)cc1 (centres unmarked) [ibuprofen, ibuprofen sodium salt] | Plasma concentration (pH 7.4, after 24h exposed to 107 µg/L, ref Patel et al 2016): 550 ng/mL
54.37 Å^2 | – | 0.06 | 0.97 | – | CC(C(=O)O)c1cccc(C(=O)c2ccccc2)c1 (centres unmarked) [ketoprofen] | Plasma concentration ([3]; pH 7.4, after 14 days exposure to 91 µg/L, ref Cuklev et al 2012): 1 ng/mL

The next lines start with the molecule.

Structure (SMILES) | PSA [1] | pKa [1] | log D [1] | log Kow [1] | log S [1] | also measured
C[C@H]1C[C@H]2[C@@H]3CCC4=CC(=O)C=C[C@]4(C)[C@@]3(Cl)[C@@H](O)C[C@]2(C)[C@@]1(O)C(=O)CO [beclomethasone] | 106.97 Å^2 | 13.85 | 4.16 | 3.49 | – | Plasma concentration (pH 7.4, 21 days exposure to 816 ng/L, dipropionate rapidly metabolized, combined values, ref Margiotta-Casaluci et al. 2016): 60 ± 35 ng/mL
NC(=O)N1c2ccccc2C=Cc2ccccc21 [carbamazepine] | 46.33 Å^2 | – | 2.28 | 2.28 | –3.2 | BCFss [2]: 1.41 ± 7.13 L kg^–1; Plasma concentration ([3]; pH 7.7, after 10 days exposed to 43 µg/L, ref Lahti et al 2011): 25 ng/mL
O=C(O)Cc1ccccc1Nc1c(Cl)cccc1Cl [diclofenac, diclofenac sodium salt] | 52.16 Å^2 | – | 1.22 | 1.9 | –4.8 | Plasma concentration (pH 7.6, after 48h exposure to 24 µg/L, ref Bickley et al 2017): 205 ng/mL; Plasma concentration (pH 7.6, after 21 days exposed to 0.95 µg/L, ref Bickley et al 2017): 26 ng/mL
Cc1ccc(C)c(OCCCC(C)(C)C(=O)O)c1 [gemfibrozil] | 46.53 Å^2 | 4.42 | 1.40 | 4.77 | –4 | Plasma concentration [4]: 183 ng/mL
C#C[C@]1(O)CC[C@H]2[C@@H]3CCC4=CC(=O)CC[C@@H]4[C@H]3CC[C@@]21C [norethindrone, norethindrone-19] | 37.30 Å^2 | 17.59 | 2.98 | 3.15 | – | Plasma concentration [5]: 950 ng/mL
CC(=O)CC(c1ccccc1)c1c(O)c2ccccc2oc1=O (centres unmarked) [warfarin] | – | 5.08 | 0.16 | – | –3.8 | –
